Drawing on ChEMBL document CHEMBL2074164, “Characterization of the transport of the bicyclic peptide phalloidin by human hepatic transport proteins” (Naunyn Schmiedebergs Arch Pharmacol, 2003), this text covers IC50, Activity and Km for seven molecules.

*1 amine or outer side, *2 acyl side, *3 side chain or, on linkers, in order; H or OH if unused. Where a SMILES comes first, the peptide text is derived from it. Bridges are numbered along the chain shown (N, C = ends). [ ]: non-standard residue; d: D form. Trp(2-yl) = O=C([C@H](Cc1c([*:3])[nH]c2ccccc12)N[*:1])[*:2]; Leu(4R-OH,5-OH) = C[C@](O)(CO)C[C@H](N)C(=O)O; cisHyp = O=C(O)[C@@H]1C[C@H](O)CN1

Type in all cases: functional, cell-based
The target of series [1] is T1, Solute carrier organic anion transporter family member 1B1 (Homo sapiens, UniProt Q9Y6L6).
T1 sequence (Q9Y6L6 whole entry): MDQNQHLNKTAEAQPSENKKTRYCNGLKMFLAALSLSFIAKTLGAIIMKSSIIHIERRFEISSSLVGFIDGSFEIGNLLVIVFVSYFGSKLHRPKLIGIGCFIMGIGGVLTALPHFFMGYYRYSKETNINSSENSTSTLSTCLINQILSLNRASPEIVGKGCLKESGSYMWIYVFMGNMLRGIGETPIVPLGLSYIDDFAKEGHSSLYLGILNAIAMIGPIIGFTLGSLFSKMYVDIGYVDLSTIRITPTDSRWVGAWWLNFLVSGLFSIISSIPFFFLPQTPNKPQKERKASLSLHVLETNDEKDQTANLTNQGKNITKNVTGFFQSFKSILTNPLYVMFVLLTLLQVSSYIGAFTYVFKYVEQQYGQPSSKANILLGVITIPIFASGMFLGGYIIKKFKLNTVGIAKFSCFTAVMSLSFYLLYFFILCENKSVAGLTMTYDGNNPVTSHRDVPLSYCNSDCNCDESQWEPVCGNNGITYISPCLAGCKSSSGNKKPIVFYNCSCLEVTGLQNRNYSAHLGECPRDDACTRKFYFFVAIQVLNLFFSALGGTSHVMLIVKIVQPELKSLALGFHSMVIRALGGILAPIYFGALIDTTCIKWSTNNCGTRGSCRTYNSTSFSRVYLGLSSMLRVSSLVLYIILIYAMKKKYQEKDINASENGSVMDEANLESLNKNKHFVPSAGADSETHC
The experiment in a line: TP_TRANSPORTER: inhibition of Phalloidin uptake (Phalloidin: 1 uM) in OATP-C-expressing HEK293 cells.

Series [2] concerns the target T1, Solute carrier organic anion transporter family member 1B1. In words: TP_TRANSPORTER: inhibition of Phalloidin uptake (Phalloidin: 1 uM) by alpha-Amanitin at a concentration of 20 u M in OATP-C-expressing HEK293 cells. The settings on record: hek293, 20 µM.
The target of series [3] is Canalicular multispecific organic anion transporter 1/Solute carrier organic anion transporter family member 1B1 (Homo sapiens, UniProt Q92887+Q9Y6L6). The experiment in a line: TP_TRANSPORTER: transepithelial transport (basal to apical) of Phalloidin at a concentration of 1 uM in MRP2- and OATP-C-expressing MDCKII cells. The settings on record: dog, mdck-ii.
Substrate in series [4]: C[C@@H]1NC(=O)[C@H](C[C@@](C)(O)CO)NC(=O)[C@@H]2Cc3c([nH]c4ccccc34)SC[C@H](NC(=O)[C@@H]([C@H](C)O)NC1=O)C(=O)N1C[C@@H](O)C[C@H]1C(=O)N[C@@H](C)C(=O)N2
In words: TP_TRANSPORTER: uptake in OATP-C-expressing HEK293 cells.

Regarding `O=C1OC(c2ccc(O)c(S(=O)(=O)O)c2)(c2ccc(O)c(S(=O)(=O)O)c2)c2c(Br)c(Br)c(Br)c(Br)c21` [SULFOBROMOPHTHALEIN SODIUM], it took 50 nM to reach half-maximal inhibition in series [1] (IC50). Same read-out and setting: in the case of `C=CC[C@@H]1/C=C(\C)C[C@H](C)C[C@H](OC)[C@H]2O[C@@](O)(C(=O)C(=O)N3CCCC[C@H]3C(=O)O[C@H](/C(C)=C/[C@@H]3CC[C@@H](O)[C@H](OC)C3)[C@H](C)[C@@H](O)CC1=O)[C@H](C)C[C@@H]2OC` [TACROLIMUS ANHYDROUS] it was 3700 nM; in that of `CC(C)[C@@H]1NC(=O)[C@@H](Cc2ccccc2)NC(=O)[C@H](Cc2ccccc2)NC(=O)[C@@H]2CCCN2C(=O)[C@@H]2CCCN2C(=O)[C@H](Cc2ccccc2)NC(=O)[C@@H](Cc2ccccc2)NC(=O)[C@H](C)NC(=O)[C@@H]2CCCN2C(=O)[C@@H]2CCCN2C1=O` [ANTAMANIDE], 1000 nM. For the molecule `CC[C@H](C)[C@@H]1NC(=O)CNC(=O)[C@@H]2Cc3c([nH]c4cc(O)ccc34)[S+]([O-])C[C@@H](NC(=O)CNC1=O)C(=O)N[C@@H](CC(N)=O)C(=O)N1C[C@H](O)C[C@H]1C(=O)N[C@@H]([C@@H](C)[C@@H](O)CO)C(=O)N2` (stereo partly drawn) [alpha-Amanitin], the Activity result in series [2] was “is not an inhibitor [-]”. With `CO[C@H]1C[C@@H]2CC[C@@H](C)[C@@](O)(O2)C(=O)C(=O)N2CCCC[C@H]2C(=O)O[C@H]([C@H](C)C[C@@H]2CC[C@@H](O)[C@H](OC)C2)CC(=O)[C@H](C)/C=C(\C)[C@@H](O)[C@@H](OC)C(=O)[C@H](C)C[C@H](C)/C=C/C=C/C=C/1C` [SIROLIMUS], the midpoint of inhibition in series [1], the IC50, lay at 1100 nM. In the case of `C[C@@H]1NC(=O)[C@H](C[C@@](C)(O)CO)NC(=O)[C@@H]2Cc3c([nH]c4ccccc34)SC[C@H](NC(=O)[C@@H]([C@H](C)O)NC1=O)C(=O)N1C[C@@H](O)C[C@H]1C(=O)N[C@@H](C)C(=O)N2` [PHALLOIDIN] (cyclo(A[dT]C[cisHyp]A[Trp(2-yl)][Leu(4R-OH,5-OH)]); thioether 3-6), in series [3], the Activity entry is “substrate [+]”.

B1: Solute carrier organic anion transporter family member 1B1 (Homo sapiens) (protein)
chain: MDQNQHLNKTAEAQPSENKKTRYCNGLKMFLAALSLSFIAKTLGAIIMKSSIIHIERRFEISSSLVGFIDGSFEIGNLLVIVFVSYFGSKLHRPKLIGIGCFIMGIGGVLTALPHFFMGYYRYSKETNINSSENSTSTLSTCLINQILSLNRASPEIVGKGCLKESGSYMWIYVFMGNMLRGIGETPIVPLGLSYIDDFAKEGHSSLYLGILNAIAMIGPIIGFTLGSLFSKMYVDIGYVDLSTIRITPTDSRWVGAWWLNFLVSGLFSIISSIPFFFLPQTPNKPQKERKASLSLHVLETNDEKDQTANLTNQGKNITKNVTGFFQSFKSILTNPLYVMFVLLTLLQVSSYIGAFTYVFKYVEQQYGQPSSKANILLGVITIPIFASGMFLGGYIIKKFKLNTVGIAKFSCFTAVMSLSFYLLYFFILCENKSVAGLTMTYDGNNPVTSHRDVPLSYCNSDCNCDESQWEPVCGNNGITYISPCLAGCKSSSGNKKPIVFYNCSCLEVTGLQNRNYSAHLGECPRDDACTRKFYFFVAIQVLNLFFSALGGTSHVMLIVKIVQPELKSLALGFHSMVIRALGGILAPIYFGALIDTTCIKWSTNNCGTRGSCRTYNSTSFSRVYLGLSSMLRVSSLVLYIILIYAMKKKYQEKDINASENGSVMDEANLESLNKNKHFVPSAGADSETHC
For B1, the Michaelis-Menten constant (Km) (as a rule, the concentration of substrate that gives half-maximal velocity) in series [4] was 39 µM.
